{"source": "patent US20200281937A1", "about": "“USL-311 FOR USE IN THE TREATMENT OF CANCER” (Proximagen, LLC, priority 2017, published 2020)", "type_in_all_cases": "in vivo", "key": {"B16BL6 (melanoma)": {"tested_on": "B16BL6 (melanoma)", "assay": "Syngeneic subcutaneous tumour growth inhibition, B16BL6", "conditions": "B16BL6 s.c. tumour in mice, 50 mg/kg p.o. 5 days out of 7, vs vehicle group", "description": "(§1) Nine syngeneic cell lines from […] different cancer types (EMT-6 (breast cancer), MBT2 (bladder cancer), CT26 (colorectal cancer), B16F10small, B16BL6 (both melanoma), A20 (lymphoma), LL/2 (lung cancer), Renca (kidney cancer), H22 (liver cancer)) were cultured and when in exponential growth were inoculated in mice subcutaneously with tumour cells in 0.1 mL of PBS for tumour development. After the mean tumour size reached approximately 80-120 mm^3 the mice were treated with 6-{4-[1-(Propan-2-yl)piperidin-4-yl]-1,4-diazepan-1-yl}-N-(pyridin-4-yl)pyridine-2-carboxamide (50 mg/kg p.o. 5 days out of 7). Tumour volumes were measured twice weekly at least in two dimensions using a caliper, and the volume expressed in mm^3 using the formula: V=0.5 a×b^2 where a and b are the long and short diameters of the tumour, respectively. Tumour growth was measured and inhibition of tumour growth reported in comparison to a vehicle treated group. All groups contained 8 mice. If the tumours in a group reached an average volume of 2000 mm^3, the experiment was terminated."}, "MBT2 (bladder cancer)": {"tested_on": "MBT2 (bladder cancer)", "assay": "Syngeneic subcutaneous tumour growth inhibition, MBT2", "conditions": "MBT2 s.c. tumour in mice, 50 mg/kg p.o. 5 days out of 7, vs vehicle group", "description": "as §1"}, "CT26 (colorectal cancer)": {"tested_on": "CT26 (colorectal cancer)", "assay": "Syngeneic subcutaneous tumour growth inhibition, CT26", "conditions": "CT26 s.c. tumour in mice, 50 mg/kg p.o. 5 days out of 7, vs vehicle group", "description": "as §1"}, "LL/2 (lung cancer)": {"tested_on": "LL/2 (lung cancer)", "assay": "Syngeneic subcutaneous tumour growth inhibition, LL/2", "conditions": "LL/2 s.c. tumour in mice, 50 mg/kg p.o. 5 days out of 7, vs vehicle group", "description": "as §1"}, "B16F10small (melanoma)": {"tested_on": "B16F10small (melanoma)", "assay": "Syngeneic subcutaneous tumour growth inhibition, B16F10small", "conditions": "B16F10small s.c. tumour in mice, 50 mg/kg p.o. 5 days out of 7, vs vehicle group", "description": "as §1"}, "Renca (kidney cancer)": {"tested_on": "Renca (kidney cancer)", "assay": "Syngeneic subcutaneous tumour growth inhibition, Renca", "conditions": "Renca s.c. tumour in mice, 50 mg/kg p.o. 5 days out of 7, vs vehicle group", "description": "as §1"}, "H22 (liver cancer)": {"tested_on": "H22 (liver cancer)", "assay": "Syngeneic subcutaneous tumour growth inhibition, H22", "conditions": "H22 s.c. tumour in mice, 50 mg/kg p.o. 5 days out of 7, vs vehicle group", "description": "as §1"}, "A20 (lymphoma)": {"tested_on": "A20 (lymphoma)", "assay": "Syngeneic subcutaneous tumour growth inhibition, A20", "conditions": "A20 s.c. tumour in mice, 50 mg/kg p.o. 5 days out of 7, vs vehicle group", "description": "as §1"}, "EMT-6 (breast cancer)": {"tested_on": "EMT-6 (breast cancer)", "assay": "Syngeneic subcutaneous tumour growth inhibition, EMT-6", "conditions": "EMT6 s.c. tumour in mice, 50 mg/kg p.o. 5 days out of 7, vs vehicle group", "description": "as §1"}}, "data": [{"smiles": "CC(C)N1CCC(N2CCCN(c3cccc(C(=O)Nc4ccncc4)n3)CC2)CC1", "note": "[6-{4-[1-(Propan-2-yl)piperidin-4-yl]-1,4-diazepan-1-yl}-N-(pyridin-4-yl)pyridine-2-carboxamide]", "values": [{"measurement": "% inhibition of tumour growth relative to control", "setting": "B16BL6 (melanoma)", "result": 0, "unit": "%"}, {"measurement": "% inhibition of tumour growth relative to control", "setting": "MBT2 (bladder cancer)", "result": 29.3, "unit": "%"}, {"measurement": "% inhibition of tumour growth relative to control", "setting": "CT26 (colorectal cancer)", "result": 32.1, "unit": "%"}, {"measurement": "% inhibition of tumour growth relative to control", "setting": "LL/2 (lung cancer)", "result": 7.8, "unit": "%"}, {"measurement": "% inhibition of tumour growth relative to control", "setting": "B16F10small (melanoma)", "result": 0, "unit": "%"}, {"measurement": "% inhibition of tumour growth relative to control", "setting": "Renca (kidney cancer)", "result": 0, "unit": "%"}, {"measurement": "% inhibition of tumour growth relative to control", "setting": "H22 (liver cancer)", "result": 20.1, "unit": "%"}, {"measurement": "% inhibition of tumour growth relative to control", "setting": "A20 (lymphoma)", "result": 11.6, "unit": "%"}, {"measurement": "% inhibition of tumour growth relative to control", "setting": "EMT-6 (breast cancer)", "result": 79.8, "unit": "%"}]}]}
